Tested on: ovariectomized mice
Test: 3-point bending biomechanical test on femur of ovariectomized mice after single microbe transplantation
Type: in vivo
Method: Animals: All C57BL/6J mice were purchased from Janvier Labs, and kept in a specific pathogen-free (SPF) facility in individually ventilated cages. All the mice were in a 12 h day/night cycle and fed a standard chow diet (16.2 MJ/kg Gross Energy; 9 kJ % Fat, 33 kJ % Protein, 58 kJ % Carbohydrates, V1534-727, Ssniff, Germany). All the mice were either male and entered the experiment at 8 weeks of age, or female starting at 16 weeks of age (for the ovariectomy experiment). Acclimatized animals were allocated into groups based on their body weight to ensure equal starting points. Warmth exposure was done at 34° C. in a light and humidity-controlled climatic chamber (TSE, Germany) in SPF conditions using individually ventilated cages All mice were sacrificed after 5 h fasting. Bone samples for CT-scan and biomecanics analysis were stored in a humid package at −20° C. All animal experiments were approved by the Swiss federal and Geneva cantonal authorities for animal experimentation (Office Vétérinaire Fédéral and Commission Cantonale pour les Expériences sur les animaux de Genève).
Ovariectomy: Mice were anesthetised with Xylazin/Ketamin (injection of 120 μl of a mixture of 120 mg/kg ketamine and 16 mg/kg xylazine) and shaved below the ribs on the back side. Betadine was applied to the area for appropriate disinfection. After a 1-2 cm incision through the skin and the muscle layer just below the ribs, the ovary was localized, the fallopian tube ligated with dissolving suture and the ovary removed. […]
Biomechanical analysis of the bones: We used a 3-points bending test to measure biomechanical parameters of the bone. […] Mechanical resistance to failure (displacement and load applied) was measured using a servo-controlled electromechanical system (Instron 1114, Instron corp., High Wycombe, UK) with actuator displaced at 2 mm/minute. Ultimate force (maximal load, measured in Newtons [N]), Yield point (N), stiffness (elastic energy, N/mm), and energy to fracture (surface under the curve of the plastic region, N*mm) were calculated. Young's modulus (MPa) was determined.

[1] = gavage every second day for 2 month, starting 3 days post-surgery

Substance: Lactobacillus reuteri
- increased displacement (post-yield displacement), femur [1]: reduce or prevent
- reduction in ultimate force (ultimate strength), femur [1]: reduce or prevent the reduction
- bone fragility induced by ovariectomy (legend of FIGS. 7A-C, overall statement): can reduce or prevent
